Laboratory results published in patent US20240124422A1, “MUTANT PI3K-ALPHA INHIBITORS AND THEIR USE AS PHARMACEUTICALS” (Prelude Therapeutics Incorporated, priority 2022, published 2024).
Like-named read-outs stand apart in the source and are kept apart here.

Assays:
[1] = tested on: phosphorylation of AKT on Ser473 as a readout of the PI3K pathway in SKBR3 (PIK3CA WT) cells; assay: PI3K pathway activation assay, pAKT Ser473 HTRF, SKBR3 cells; format: cell-based; settings: two hours of treatment
Description: The inhibitory activity of compounds was evaluated by measuring phosphorylation of AKT on Ser473 as a readout of the PI3K pathway using HTRF (CisBio catalog number: 64AKSPE). These studies were conducted in the T-47D (heterozygous PIK3CA H1047R) and SKBR3 (PIK3CA WT) cell lines. Cells were maintained in a 37° C. incubator at 5% CO2 in the following media: T-47D: RPMI 1640, ATCC© Modification (Gibco, A10491-01) supplemented with 10% v/v FBS (Gibco, 26140-079), 1% penicillin streptomycin (Gibco, 15140-122), and 7.4 ug/mL insulin (MilliporeSigma, I9278); SKBR3: McCoy's 5a (Modified) Medium (Gibco, 16600-082) supplemented with 10% v/v FBS (Gibco, 26140-079). Cells were seeded in 384-well plates at a density of 4,000 cells/well. Compounds dissolved in DMSO were added using a digital dispense (D300E, Tecan) 10-point serial dilution. After two hours of treatment, cells were lysed for thirty minutes and then incubated with detection reagents per HTRF kit material and manufacturer's instructions. Fluorescence signal was measured with a multimode plate reader (Envision 2105, Perkin Elmer). Fluorescent signal was normalized to background and DMSO controls to obtain percent inhibition/activity for each compound.

[2] = tested on: phosphorylation of AKT on Ser473 as a readout of the PI3K pathway in T-47D (heterozygous PIK3CA H1047R) cells; assay: PI3K pathway activation assay, pAKT Ser473 HTRF, T-47D cells; format: cell-based; settings: two hours of treatment
Outline: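 pAKT Ser473 measured by HTRF in SKBR3 (PIK3CA WT) and T-47D (PIK3CA H1047R) cells, 4,000/well. Signal normalised to background and DMSO controls as percent inhibition.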

Row | Compound | IC50 ([1]; Homo sapiens, SK-BR-3, 2 h) | IC50 ([2]; Homo sapiens, T47D, 2 h) | IC50 [1] | IC50 ([2]; read-out: T47D pAKT IC50)
1 | Cc1cc(C(C)Nc2ccccc2C(=O)O)c2nc(N3Cc4ccccc4C3)[nH]c(=O)c2c1 (centres unmarked) [Example 22, 2-((1-(2-(isoindolin-2-yl)-6-methyl-4-oxo-3,4-dihydroquinazolin-8-yl)ethyl)amino)benzoic acid] | > 10 µM | < 0.5 µM |  | 
2 | Cc1cc(C(C)Nc2ccccc2S(N)(=O)=O)c2nc(N3Cc4ccccc4C3)n(C)c(=O)c2c1 (centres unmarked) [Example 6, 2-((1-(2-(isoindolin-2-yl)-3,6-dimethyl-4-oxo-3,4-dihydroquinazolin-8-yl)ethyl)amino)benzenesulfonamide] | > 10 µM | < 0.5 µM |  | 
3 | Cc1cc(C(C)Nc2cccnc2C(=O)O)c2nc(N3Cc4ccccc4C3)n(C)c(=O)c2c1 (centres unmarked) [Example 28, 3-((1-(2-(isoindolin-2-yl)-3,6-dimethyl-4-oxo-3,4-dihydroquinazolin-8-yl)ethyl)amino)picolinic acid] | > 10 µM | 0.5 to 10 µM |  | 
4 | Cc1cc(C(C)Nc2ccccc2C(=O)O)c2nc(N3Cc4ccc(F)cc4C3)n(C)c(=O)c2c1 (centres unmarked) [Example 2, 2-((1-(2-(5-fluoroisoindolin-2-yl)-3,6-dimethyl-4-oxo-3,4-dihydroquinazolin-8-yl)ethyl)amino)benzoic acid] | > 10 µM | < 0.5 µM |  | 
5 | Cc1cc(C(C)Nc2ccccc2C(=O)O)c2nc(N3C[C@@H]4C(C(=O)N(C)C5CCC5)[C@@H]4C3)n(C)c(=O)c2c1 (stereo partly drawn) [Example 82, 2-((1-(2-((1R,5S,6R)-6-(Cyclobutyl(methyl)carbamoyl)-3-azabicyclo[3.1.0]hexan-3-yl)-3,6-dimethyl-4-oxo-3,4-dihydroquinazolin-8-yl)ethyl)amino)benzoic acid] |  |  | > 10 µM | < 0.5 µM
6 | Cc1cc(C(C)Nc2ccc(F)c(F)c2C(=O)O)c2nc(N3Cc4ccccc4C3)n(C)c(=O)c2c1 (centres unmarked) [Example 35, 2,3-difluoro-6-((1-(2-(isoindolin-2-yl)-3,6-dimethyl-4-oxo-3,4-dihydroquinazolin-8-yl)ethyl)amino)benzoic acid] | > 10 µM | < 0.5 µM |  | 
7 | Cc1cc(C(C)Nc2ccccc2C(=O)O)c2nc(N3Cc4ccccc4C3)n(C(C)C)c(=O)c2c1 (single isomer, unassigned) [Example 27, 2-((1-(2-(isoindolin-2-yl)-3-isopropyl-6-methyl-4-oxo-3,4-dihydroquinazolin-8-yl)ethyl)amino)benzoic acid] | > 10 µM | < 0.5 µM |  | 
8 | Cc1cc(C(C)Nc2ccc(C#N)cc2C(=O)O)c2nc(N3Cc4ccccc4C3)n(C)c(=O)c2c1 (centres unmarked) [Example 31, 5-cyano-2-((1-(2-(isoindolin-2-yl)-3,6-dimethyl-4-oxo-3,4-dihydroquinazolin-8-yl)ethyl)amino)benzoic acid] | > 10 µM | < 0.5 µM |  | 
9 | Cc1cc(C(C)Nc2cc(C#N)ccc2C(=O)O)c2nc(N3CC4CC4C3)n(C)c(=O)c2c1 (centres unmarked) [Example 23, 2-((1-(2-(3-azabicyclo[3.1.0]hexan-3-yl)-3,6-dimethyl-4-oxo-3,4-dihydro-quinazolin-8-yl)ethyl)amino)-4-cyanobenzoic acid] | > 10 µM | 0.5 to 10 µM |  | 
10 | Cc1cc(C(C)Nc2ccccc2S(C)(=O)=O)c2nc(N3Cc4ccccc4C3)n(C)c(=O)c2c1 (centres unmarked) [Example 8, 2-(isoindolin-2-yl)-3,6-dimethyl-8-(1-((2-(methylsulfonyl)phenyl)amino)ethyl)quinazolin-4(3H)-one] | > 10 µM | 0.5 to 10 µM |  | 
11 | Cc1cc(C(C)Nc2ccccc2C(=O)O)c2nc(N3CCC4(CC4)C3)n(C)c(=O)c2c1 (centres unmarked) [Example 39, 2-[1-[2-(5-azaspiro[2.4]heptan-5-yl)-3,6-dimethyl-4-oxoquinazolin-8-yl]ethyl-amino]benzoic acid] | > 10 µM | < 0.5 µM |  | 

The next lines start with results.

Row | IC50 ([1]; Homo sapiens, SK-BR-3, 2 h) | IC50 ([2]; Homo sapiens, T47D, 2 h) | Compound | IC50 [1] | IC50 ([2]; read-out: T47D pAKT IC50)
12 | > 10 µM | 0.5 to 10 µM | Cc1cc(C(C)Nc2ccc(C)nc2C(=O)O)c2nc(N3CC4CC4C3)n(C)c(=O)c2c1 (centres unmarked) [Example 120, 3-[1-[2-(3-Azabicyclo[3.1.0]hexan-3-yl)-3,6-dimethyl-4-oxoquinazolin-8-yl]ethylamino]-6-methylpyridine-2-carboxylic acid] |  | 
13 | > 10 µM | < 0.5 µM | Cc1cc(C(C)Nc2ccc(F)cc2C(=O)O)c2nc(N3CC4CC4C3)n(C)c(=O)c2c1 (centres unmarked) [Example 123, 2-[1-[2-(3-Azabicyclo[3.1.0]hexan-3-yl)-3,6-dimethyl-4-oxoquinazolin-8-yl]ethylamino]-5-fluorobenzoic acid] |  | 
14 | > 10 µM | < 0.5 µM | Cc1cc(C(C)Nc2ccccc2C(=O)O)c2nc(N3Cc4cccnc4C3)n(C)c(=O)c2c1 (single isomer, unassigned) [Example 67, 2-((1-(2-(5,7-Dihydro-6H-pyrrolo[3,4-b]pyridin-6-yl)-3,6-dimethyl-4-oxo-3,4-dihydroquinazolin-8-yl)ethyl)amino)benzoic acid] |  | 
15 | > 10 µM | < 0.5 µM | COC(=O)NC1[C@H]2CN(c3nc4c(C(C)Nc5ccccc5C(=O)O)cc(C)cc4c(=O)n3C)C[C@@H]12 (stereo partly drawn) [Example 58, 2-((1-(2-((1R,5S,6s)-6-((methoxycarbonyl)amino)-3-azabicyclo[3.1.0]hexan-3-yl)-3,6-dimethyl-4-oxo-3,4-dihydroquinazolin-8-yl)ethyl)amino)benzoic acid] |  | 
16 | > 10 µM | < 0.5 µM | CC(Nc1ccccc1C(=O)O)c1cc(Cl)cc2c(=O)n(C)c(N3CC4CC4C3)nc12 (single isomer, unassigned) [Example 105, 2-((1-(2-(3-Azabicyclo[3.1.0]hexan-3-yl)-6-chloro-3-methyl-4-oxo-3,4-dihydroquinazolin-8-yl)ethyl)amino)benzoic acid] |  | 
